Reference: patent publication US10302663B2, “Method of assessing pancreatic beta-cell function” (METABOLON, INC., priority 2011, dated 2019)

What was measured:
INS-1e cells = assay: Glucose-stimulated insulin release in INS-1e cells; format: cell-based, rat; conditions: INS-1e cells incubated 48 h with physiological concentrations of metabolite, then 3.3, 11, 20 mM glucose or 20 mM glucose+10 mM arginine, FIG. 2
Description: Clonal INS-1e cells, derived and selected from a parental rat insulinoma INS-1 cell line (University of Geneva, Geneva, Switzerland), were grown in monolayer culture in RPMI 1640 medium containing 11.1 mM glucose. The culture medium was supplemented with 10% heat-inactivated fetal calf serum, 1 mM sodium pyruvate, 10 mM HEPES, 2 mM glutamine, 50 μmol/liter β-mercaptoethanol, 100 U/ml penicillin, and 100 μg/ml streptomycin. Cells were cultured at 37 C in a humidified 95% air-5% CO2 atmosphere. Cells were seeded onto wells at a density of 1.5×10^5 cells/well at least 96 h before using them in the insulin secretion experiments. Tissue culture reagents were obtained from Life Technologies, Inc. Invitrogen (Basel, Switzerland).
The insulin secretory response to glucose was tested in INS-1e cells. When cells had reached approximately 80% confluence, cells were incubated for 48 h in fresh RPMI 1640 medium containing 11.1 mM glucose, in the presence or absence of different physiological concentrations of metabolites alpha-hydroxybutyrate (2-HB) (Sigma-Aldrich) and linoleoyl-glycerophosphocholine (L-GPC) (Avanti Polar Lipids). Next, cells were maintained for 1 h in glucose-free Krebs-Ringer bicarbonate HEPES buffer containing 135 mm NaCl, 3.6 mm KCl, 5 mm NaHCO3, 0.5 mm Na H2PO4, 0.5 mm MgCl2, 1.5 mm CaCl2, 10 mm HEPES, and BSA 0.1% (glucose-free; pH 7.4; starvation period) and then washed with glucose-free Krebs-Ringer bicarbonate-HEPES buffer and subsequently incubated for […] with Krebs-Ringer bicarbonate-HEPES buffer containing 3.3, 11, 20 mM glucose, or 20 mM glucose+10 mM arginine. At the end of incubation, supernatants were collected to measure insulin concentration (Linco Research, St. Charles, Mo.). Cellular insulin contents were determined in acid-ethanol extracts. The insulin secretory response to glucose was expressed as the ratio of insulin concentration in the supernatant to the cellular insulin content.

[1] = Beta-cell biomarker levels in fasted plasma in response to pioglitazone therapy in IGT subjects; format: in vivo, human; conditions: pioglitazone 45 mg/day, 2.4 years, baseline vs study end
Description: In another study, the relationship between changes in the IS/IR Disposition index and changes in the levels of the beta-cell function biomarkers, AHB and LGPC following drug treatment were determined. The study cohort consisted of 431 IGT subjects (FPG=105, 2-h PG [OGTT]=168, HbA1C=5.5%) who were randomized to pioglitazone (45 mg/day) or placebo and followed for 2.4 years. Fasted plasma samples were analyzed at baseline and study end for AHB, LGPC, insulin, HbA1c and Matsuda index.
A method for measuring each of the biomarkers listed in Table 4 in EDTA human plasma was developed. Human plasma samples were spiked with internal standards and subjected to protein precipitation as described below. Following centrifugation, the supernatant was removed and injected onto a Waters Acquity/Thermo Quantum Ultra LC-MS-MS system using four different chromatographic systems (column/mobile phase combinations).

Which “effect on glucose-stimulated insulin release (ratio of insulin in supernatant to cellular insulin content)” value (INS-1e cells) does the source give for `CC[C@H](O)C(=O)O` [AHB, 2-hydroxybutyrate] here?
The value was “inhibited the glucose stimulated release of insulin”.

And the “effect on glucose-stimulated insulin release (ratio of insulin in supernatant to cellular insulin content)” value (INS-1e cells; listed as 2-hydroxybutyrate)?
The value was “inhibitory effect”.

Which “effect on glucose-stimulated insulin release (ratio of insulin in supernatant to cellular insulin content)” value (INS-1e cells) does the source give for `CCCCC/C=C\C/C=C\CCCCCCCC(=O)OC[C@@H](O)COP(=O)([O-])OCC[N+](C)(C)C` [LGPC, linoleoyl lysophosphatidylcholine] here?
The value was “stimulated the glucose stimulated release of insulin”.

What about the “effect on glucose-stimulated insulin release (ratio of insulin in supernatant to cellular insulin content)” value (INS-1e cells; listed as Linoleoyl-GPC) of the same compound?
The value was “stimulatory effect”.

For `CCc1ccc(CCOc2ccc(CC3SC(=O)NC3=O)cc2)nc1` (stereo not drawn) [PIO, pioglitazone], which “Fold change of Linoleoyl-GPC Before and after PIO” value ([1]; p<0.005) is on record?
Its value is 1.21 ↑.

And the “Fold change of α-HB Before and after PIO” value ([1]; p=0.001)?
Its value is 0.90 ↓.
